From patent US20100041710A1, “PENETRATION ENHANCER FOR INSECTICIDES” (priority 2006, published 2010)
Read-outs that look alike come from different tables or passages of the source.

Key:
[1] = Description: In this test, the penetration of active substances through enzymatically isolated cuticles of apple tree leaves was measured. The cuticles represent all green plant parts, such as leaf blade, petiole, stalk, trunk, hypocotyl and many fruits.
Leaves which were cut off in the stage of full development of apple trees of the Golden Delicious variety were used. The isolation of the cuticles was effected in a manner such that • first, leaf disks marked on the underside with dye and punched out were filled by means of vacuum infiltration with a pectinase solution (0.2 to 2% strength by weight) buffered to a pH between 3 and 4, • sodium azide was then added and • the leaf disks thus treated were allowed to stand until disintegration of the original leaf structure and detachment of the noncellular cuticle.
Thereafter, only those cuticles of the upper sides of the leaves which were free of stomata and hairs were further used. They were washed several times alternately with water and a buffer solution at pH 7. The cleaned cuticles obtained were finally drawn onto small Teflon plates and smoothed and dried with a gentle air jet.
In the next step, the cuticle membranes thus obtained were placed in stainless steel diffusion cells (=transport chambers) for membrane transport investigations. For this purpose, the cuticles were placed by means of forceps centrally on the silicone grease-coated edges of the diffusion cells and closed with a likewise greased ring. The arrangement was chosen so that the morphological outside of the cuticles faced outward, i.e. toward the air, while the original inside faced the interior of the diffusion cell. The diffusion cells were filled with water or with a mixture of water and solvent.
For determining the penetration, in each case 10 μl of a spray liquor of the composition mentioned in the examples were applied to the outside of a cuticle.
In each case the solvents listed below in the table (tap water or a mixture with 20% by weight of acetone/80% by weight of tap water) were used in the spray liquors.
After the application of the spray liquors, in each case the solvent was allowed to evaporate, and in each case the chambers were then turned around and placed in thermostated trays, air having a defined temperature and atmospheric humidity being blown onto the outside of the cuticle. The incipient penetration therefore took place at a relative humidity of 60% and a set temperature of 20 or 25° C. The active substance penetration was measured with radioactively marked active substance.

crop plant = test: Crop plant tolerance tests; conditions: compared with other alkyl ester additives
[2] = Table 1, 0.18 g/l of thiacloprid in tap water, apple leaf cuticles, 20° C., rel. humidity 60%, mean of 4-8 repetitions
[3] = Table 2, 0.3 g/l of active substance, tap water (thiacloprid) or acetone/tap water 20/80% by weight (spirotetramat), 20-25° C., rel. humidity 56-60%, mean of 4-8 repetitions
[4] = Table 3, 0.1 g/l of imidacloprid in tap water, apple leaf cuticles, 20-25° C., rel. humidity 56-60%, mean of 10 repetitions

SMILES: N#C/N=C1\SCCN1Cc1ccc(Cl)nc1 [thiacloprid]
- % Penetration after 3 h [1, 2]: 0.1%
- % Penetration after 24 h [1, 2]: 0.8%
- % Penetration after 3 h [1, 3]: 0.1%
- % Penetration after 48 h [1, 3]: 1.0%

SMILES: O=[N+]([O-])NC1=NCCN1Cc1ccc(Cl)nc1 [imidacloprid]
- % Penetration after 3 h [1, 4]: 0.3%
- % Penetration after 24 h [1, 4]: 0.5%

SMILES: CCOC(=O)OC1=C(c2cc(C)ccc2C)C(=O)N[C@]12CC[C@@H](OC)CC2 [spirotetramat, cis-3-(2,5-dimethylphenyl)-8-methoxy-2-oxo-1-azaspiro[4.5]dec-3-en-4-yl ethyl carbonate]
- % Penetration after 3 h [1, 3]: 0%
- % Penetration after 48 h [1, 3]: 0.3%

SMILES: CCCCOCCOP(=O)(OCCOCCCC)OCCOCCCC [TBEP, tributoxyethyl phosphate]
- Increase in uptake of active substances compared with prior-art penetration enhancers ([1]; summary of table 3 (imidacloprid), versus TBP and TPP): advantageously higher increase in uptake of active substances than the penetration enhancers of the prior art
- Crop plant tolerance (crop plant): more tolerant than other alkyl ester additives
